Results from patent publication US20210347775A1, “Deuterated Imidazo[4,5-c]quinolin-2-one Compounds and Their Use in Treating Cancer” (AstraZeneca AB, priority 2017, published 2021).

Key:
ATR = target: T1, ATR (Homo sapiens, UniProt Q13535); assay: Assay b): ATR cellular potency (pChk1 Ser345 in HT29 cells after 4NQO); format: cell-based; conditions: Table 3 comparative data; HT29 cells, pChk1 Ser345 after 4NQO; may be geometric mean of several tests; read-out: Assay b) ATR Cell IC50
T1 construct: endogenous in cells; host or cells: HT29 cells (ECACC #85061109)
Procedure: (§1) The following assays were used to measure the effects of the compounds of the present invention: a) ATM cellular potency assay; b) PI3K cellular potency assay; c) mTOR cellular potency assay; d) ATR cellular potency assay. During the description of the assays, generally: • i. […] IC50 values were calculated using a smart fitting model in Genedata. […]
Phospho-Chk1 Ser 345 antibody (Cell Signalling Technology #2348) was diluted 150 fold in PBS containing 0.05% polysorbate/Tween and 15 μl was added to each well and incubated over night at r.t. […] After 2 h incubation at r.t., the plates were washed three times with 50 μl/well PBS, using a Biotek EL405 plate washer, and plates were then sealed with black plate seals until read. Plates were read using an ArrayScan VTI instrument, using an XF53 filter with 10× objective. […]

ATM = target: T2, ATM (Homo sapiens, UniProt Q13315); assay: Assay a): ATM cellular potency (pATM Ser1981 in irradiated HT29 cells); format: cell-based; conditions: Table 2; HT29 cells, pATM Ser1981 after X-ray irradiation; may be geometric mean of several tests; read-out: Assay a) ATM Cell IC50
T2 construct: endogenous in cells; host or cells: HT29 cells (ECACC #85061109)
T2 sequence (Q13315 whole entry): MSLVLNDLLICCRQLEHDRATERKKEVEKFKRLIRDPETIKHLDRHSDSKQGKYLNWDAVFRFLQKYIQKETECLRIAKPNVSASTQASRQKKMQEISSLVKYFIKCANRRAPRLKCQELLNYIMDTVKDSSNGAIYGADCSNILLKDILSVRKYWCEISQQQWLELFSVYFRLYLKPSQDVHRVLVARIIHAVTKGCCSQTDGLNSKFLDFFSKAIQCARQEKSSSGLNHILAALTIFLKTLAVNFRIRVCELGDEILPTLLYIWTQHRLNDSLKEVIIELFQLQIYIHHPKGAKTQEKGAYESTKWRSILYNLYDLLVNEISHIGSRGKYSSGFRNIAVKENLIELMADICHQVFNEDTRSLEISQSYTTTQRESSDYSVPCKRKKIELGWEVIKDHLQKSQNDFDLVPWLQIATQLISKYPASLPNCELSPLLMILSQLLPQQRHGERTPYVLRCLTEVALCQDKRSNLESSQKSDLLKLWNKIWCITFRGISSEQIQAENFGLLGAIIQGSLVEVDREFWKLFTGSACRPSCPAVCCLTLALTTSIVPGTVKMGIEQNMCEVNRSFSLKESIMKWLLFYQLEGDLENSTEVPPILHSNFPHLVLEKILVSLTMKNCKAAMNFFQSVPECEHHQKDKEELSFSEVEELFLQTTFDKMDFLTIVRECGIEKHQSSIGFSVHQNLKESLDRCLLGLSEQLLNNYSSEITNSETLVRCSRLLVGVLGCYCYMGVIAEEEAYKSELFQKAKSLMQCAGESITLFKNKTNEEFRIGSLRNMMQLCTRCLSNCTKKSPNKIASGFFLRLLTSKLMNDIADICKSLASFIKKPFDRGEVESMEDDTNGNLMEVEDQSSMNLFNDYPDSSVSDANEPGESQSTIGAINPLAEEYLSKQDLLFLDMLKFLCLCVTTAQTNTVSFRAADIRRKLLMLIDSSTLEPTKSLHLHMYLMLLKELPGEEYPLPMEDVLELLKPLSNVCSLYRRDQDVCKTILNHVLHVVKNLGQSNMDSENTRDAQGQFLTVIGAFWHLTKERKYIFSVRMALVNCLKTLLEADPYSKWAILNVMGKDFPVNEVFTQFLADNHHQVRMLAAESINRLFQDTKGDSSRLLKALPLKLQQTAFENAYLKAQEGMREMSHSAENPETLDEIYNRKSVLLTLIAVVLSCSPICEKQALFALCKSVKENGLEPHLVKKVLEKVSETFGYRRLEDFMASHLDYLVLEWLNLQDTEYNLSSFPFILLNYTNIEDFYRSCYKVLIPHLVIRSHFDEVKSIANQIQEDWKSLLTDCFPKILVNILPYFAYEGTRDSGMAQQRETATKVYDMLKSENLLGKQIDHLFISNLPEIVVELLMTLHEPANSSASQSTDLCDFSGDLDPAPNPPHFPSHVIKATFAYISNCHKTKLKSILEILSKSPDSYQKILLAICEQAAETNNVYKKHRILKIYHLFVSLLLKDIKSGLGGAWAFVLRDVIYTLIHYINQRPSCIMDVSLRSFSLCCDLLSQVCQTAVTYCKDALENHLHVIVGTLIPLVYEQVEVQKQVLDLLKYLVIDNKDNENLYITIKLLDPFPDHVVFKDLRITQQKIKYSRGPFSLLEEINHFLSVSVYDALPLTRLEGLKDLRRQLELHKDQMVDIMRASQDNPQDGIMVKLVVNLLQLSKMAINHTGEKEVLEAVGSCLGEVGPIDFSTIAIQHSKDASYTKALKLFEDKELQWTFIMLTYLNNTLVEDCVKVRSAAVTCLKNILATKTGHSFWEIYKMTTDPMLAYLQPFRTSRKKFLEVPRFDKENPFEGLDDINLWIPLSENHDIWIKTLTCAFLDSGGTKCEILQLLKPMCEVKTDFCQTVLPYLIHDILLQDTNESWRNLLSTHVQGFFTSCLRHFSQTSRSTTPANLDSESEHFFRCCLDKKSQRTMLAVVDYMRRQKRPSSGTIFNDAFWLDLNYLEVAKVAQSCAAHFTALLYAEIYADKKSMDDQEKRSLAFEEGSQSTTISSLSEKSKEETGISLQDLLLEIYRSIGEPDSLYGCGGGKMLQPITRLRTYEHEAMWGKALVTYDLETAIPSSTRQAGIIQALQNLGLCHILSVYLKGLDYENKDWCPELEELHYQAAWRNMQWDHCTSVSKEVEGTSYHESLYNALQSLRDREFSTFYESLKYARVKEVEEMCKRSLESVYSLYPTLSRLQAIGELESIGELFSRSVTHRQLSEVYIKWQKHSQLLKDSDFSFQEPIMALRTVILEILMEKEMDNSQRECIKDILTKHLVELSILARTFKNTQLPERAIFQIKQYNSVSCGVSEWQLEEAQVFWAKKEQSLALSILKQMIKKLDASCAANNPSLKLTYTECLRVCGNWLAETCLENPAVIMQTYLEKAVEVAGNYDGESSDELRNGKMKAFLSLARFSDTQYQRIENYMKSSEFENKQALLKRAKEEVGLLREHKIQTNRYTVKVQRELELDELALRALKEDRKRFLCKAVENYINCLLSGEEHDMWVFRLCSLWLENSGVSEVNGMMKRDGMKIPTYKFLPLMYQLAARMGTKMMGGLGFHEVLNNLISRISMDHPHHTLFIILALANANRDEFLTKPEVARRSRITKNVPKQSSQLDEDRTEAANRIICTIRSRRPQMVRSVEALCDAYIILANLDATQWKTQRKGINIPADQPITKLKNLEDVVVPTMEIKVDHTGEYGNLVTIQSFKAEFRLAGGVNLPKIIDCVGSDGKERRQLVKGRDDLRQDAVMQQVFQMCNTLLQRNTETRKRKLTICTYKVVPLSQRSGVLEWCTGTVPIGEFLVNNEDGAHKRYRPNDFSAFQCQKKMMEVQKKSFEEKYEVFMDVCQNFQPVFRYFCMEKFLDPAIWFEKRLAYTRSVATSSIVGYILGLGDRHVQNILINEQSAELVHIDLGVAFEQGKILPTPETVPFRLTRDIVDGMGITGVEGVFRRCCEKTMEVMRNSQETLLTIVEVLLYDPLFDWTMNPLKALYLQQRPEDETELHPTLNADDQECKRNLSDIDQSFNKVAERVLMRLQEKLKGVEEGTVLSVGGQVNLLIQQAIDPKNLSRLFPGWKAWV
Procedure: as §1
The rationale of the pATM assay is to identify inhibitors of ATM in cells. […] The fluorescence is read on the arrayscan imaging platform. […]
Phospho-ATM Ser1981 antibody (Millipore #MAB3806) was diluted 10000 fold in PBS containing 0.05% polysorbate/Tween and 3% BSA and 20 μl was added to each well and incubated over night at r.t. […] After 1 h incubation at r.t., the plates were washed three times with 50 μl/well PBS, using a Biotek EL405 plate washer, and plates were sealed and kept in PBS at 4° C. until read. Plates were read using an ArrayScan VTI instrument, using an XF53 filter with 10× objective. […]

| IC50 (ATR) [nM] | IC50 (ATM) [nM] | SMILES |
| --- | --- | --- |
| 419 | – | Cn1c(=O)n(C2CCOCC2)c2c3cc(-c4cnn(CCCO)c4)ccc3ncc21 [CN102399218A Compound 60] |
| – | 2.5 | [2H]c1c(F)c(-c2ccc(OCCCN3CCCCC3)nc2)cc2c1nc([2H])c1c2n(C(C)C)c(=O)n1C [Example 1, 4,6-Dideuterio-7-fluoro-1-isopropyl-3-methyl-8-[6-[3-(1-piperidyl)propoxy]-3-pyridyl]imidazo[4,5-c]quinolin-2-one] |
